Test results published in ChEMBL document CHEMBL1201862, “PubChem BioAssay data set” (2004).
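Tested at 5 concentrations; 48 h exposure; 96-well plates; endpoints linearly interpolated, else capped at highest concentration. GI50 = concentration required for 50% inhibition of growth.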 Calls of active or inactive are those of the source. Rule as the data show it: active = GI50 up to about 1.1 µM and inactive = higher.

Experiments:
Experiment in all cases: inhibition of tumour cell growth, NCI panel, 48 h
A498 = tested on: A498
A549 = tested on: A549
COLO 205 = tested on: COLO 205
EKVX = tested on: EKVX
HCC 2998 = tested on: HCC 2998
HCT-116 = tested on: HCT-116
HOP-92 = tested on: HOP-92
Hs-578T = tested on: Hs-578T
MCF7 = tested on: MCF7
MDA-MB-231 = tested on: MDA-MB-231
NCI-H23 = tested on: NCI-H23
OVCAR-3 = tested on: OVCAR-3
OVCAR-5 = tested on: OVCAR-5
SF-268 = tested on: SF-268
SF-539 = tested on: SF-539
SK-MEL-28 = tested on: SK-MEL-28
SK-MEL-2 = tested on: SK-MEL-2
SN12C = tested on: SN12C
SR = tested on: SR
RXF 393 = tested on: RXF 393

Measured: GI50

COc1ccc2c(c1)C(=O)CCc1cc(OC)c(OC)c(OC)c1-2
active: A498 0.0504 µM | A549 0.0687 µM | COLO 205 0.0512 µM | EKVX 0.045 µM | HCC 2998 0.0412 µM | HCT-116 0.0506 µM | HOP-92 0.135 µM | Hs-578T 0.0243 µM | MCF7 < 0.01 µM | MDA-MB-231 0.166 µM | NCI-H23 0.024 µM | OVCAR-3 0.0409 µM | OVCAR-5 0.0783 µM | SF-268 0.0948 µM | SF-539 < 0.01 µM | SK-MEL-28 0.0818 µM | SK-MEL-2 0.0818 µM | SN12C 0.0649 µM | SR 0.0354 µM

OCCSCC(O)Cn1cnc2c(O)nc(Nc3ccccc3)nc21 (centres undefined)
inactive: A498 > 100 µM | A549 > 100 µM | COLO 205 > 100 µM | EKVX > 100 µM | HCC 2998 > 100 µM | HCT-116 > 100 µM | HOP-92 > 100 µM | Hs-578T > 100 µM | MCF7 > 100 µM | MDA-MB-231 > 100 µM | NCI-H23 > 100 µM | OVCAR-3 > 100 µM | OVCAR-5 > 100 µM | SF-268 > 100 µM | SF-539 > 100 µM | SK-MEL-28 > 100 µM | SK-MEL-2 > 100 µM | SN12C > 100 µM | SR > 100 µM

CCNc1cc2c(cc1O)CC[C@@H]1[C@@H]2CC[C@]2(C)[C@@H](O)CC[C@@H]12
active: HCC 2998 1.02 µM
inactive: A498 1.7 µM | A549 2.32 µM | COLO 205 14.4 µM | EKVX 16.3 µM | HOP-92 10.3 µM | Hs-578T 3.62 µM | MCF7 8.43 µM | MDA-MB-231 10.5 µM | NCI-H23 12.9 µM | OVCAR-5 20.3 µM | RXF 393 3.53 µM | SF-268 15.8 µM | SK-MEL-28 4.59 µM | SN12C 15.3 µM | SR 1.31 µM

Cc1cc(Oc2cnc(=O)[nH]c2)cs1
inactive: A498 > 100 µM | A549 > 100 µM | COLO 205 > 100 µM | EKVX > 100 µM | HCC 2998 > 100 µM | HCT-116 > 100 µM | Hs-578T > 100 µM | MCF7 > 100 µM | MDA-MB-231 > 100 µM | NCI-H23 > 100 µM | OVCAR-3 > 100 µM | OVCAR-5 > 100 µM | SF-268 > 100 µM | SF-539 > 100 µM | SK-MEL-28 > 100 µM | SK-MEL-2 > 100 µM | SN12C > 100 µM | SR > 100 µM

O=C(Nc1sccc1S(=O)(=O)c1ccccc1)c1cccnc1
inactive: A549 11.5 µM | COLO 205 3.88 µM | EKVX 48.9 µM | HCC 2998 21.3 µM | HCT-116 6.59 µM | HOP-92 > 42.4 µM | Hs-578T > 46.7 µM | MCF7 8.07 µM | MDA-MB-231 > 69.5 µM | NCI-H23 27 µM | OVCAR-3 11.6 µM | OVCAR-5 > 70.6 µM | RXF 393 14.9 µM | SF-268 57.4 µM | SF-539 5.94 µM | SK-MEL-28 38.5 µM | SK-MEL-2 6.71 µM | SN12C 9.86 µM | SR 5.2 µM

CCOC(=O)c1c(CN2CCOCC2)n(Cc2ccccc2)c2c1cc(O)c1nc(C)c(C)nc12
inactive: A498 22 µM | A549 49 µM | COLO 205 40 µM | EKVX > 100 µM | HCC 2998 > 100 µM | HCT-116 38.3 µM | Hs-578T 36.1 µM | MCF7 16.7 µM | MDA-MB-231 85.1 µM | NCI-H23 35.5 µM | OVCAR-3 52.7 µM | OVCAR-5 > 100 µM | SF-268 21.8 µM | SF-539 30.8 µM | SK-MEL-28 > 100 µM | SK-MEL-2 20 µM | SN12C > 100 µM | SR 44 µM

CCOC(=O)C(SCCO)C(C(=O)OCC)n1ccc(N)nc1=O (centres undefined)
inactive: A498 > 100 µM | A549 > 100 µM | COLO 205 > 100 µM | EKVX > 100 µM | HCC 2998 > 100 µM | HCT-116 > 100 µM | HOP-92 > 100 µM | Hs-578T > 100 µM | MCF7 > 100 µM | MDA-MB-231 > 100 µM | NCI-H23 > 100 µM | OVCAR-3 > 100 µM | OVCAR-5 > 100 µM | SF-268 > 100 µM | SF-539 > 100 µM | SK-MEL-28 > 100 µM | SK-MEL-2 > 100 µM | SN12C > 100 µM | SR > 100 µM

O=C(O)C1CCCN1Cc1ccc2c(c1)OCO2 (centres undefined)
inactive: A498 > 100 µM | A549 > 100 µM | COLO 205 > 100 µM | EKVX > 100 µM | HCT-116 > 100 µM | HOP-92 > 100 µM | Hs-578T > 100 µM | MCF7 > 100 µM | MDA-MB-231 > 100 µM | NCI-H23 > 100 µM | OVCAR-3 > 100 µM | OVCAR-5 > 100 µM | RXF 393 > 100 µM | SF-268 > 100 µM | SF-539 > 100 µM | SK-MEL-28 > 100 µM | SK-MEL-2 > 100 µM | SN12C > 100 µM | SR 14.5 µM

CC(C)CCCC(C)[C@H]1CCC2[C@@H]3CCC4Cc5nc6c(nc5C[C@]4(C)C3CC[C@@]21C)CC1CC[C@@H]2C(CC[C@@]3(C)C2CC[C@@H]3C(C)CCCC(C)C)[C@@]1(C)C6 (some centres undefined)
inactive: A498 > 100 µM | A549 > 100 µM | COLO 205 > 100 µM | EKVX > 100 µM | HCT-116 > 100 µM | HOP-92 > 100 µM | Hs-578T > 100 µM | MCF7 > 100 µM | MDA-MB-231 > 100 µM | NCI-H23 > 100 µM | OVCAR-3 > 100 µM | OVCAR-5 > 100 µM | RXF 393 > 100 µM | SF-268 > 100 µM | SF-539 > 100 µM | SK-MEL-28 > 100 µM | SK-MEL-2 > 100 µM | SN12C > 100 µM | SR > 100 µM

CC(=O)N1C(Nc2cccc3nc(C)ccc23)CCN1c1ccccc1 (centres undefined)
inactive: A549 > 10 µM | COLO 205 > 10 µM | EKVX > 10 µM | HCC 2998 > 10 µM | HCT-116 > 10 µM | Hs-578T > 10 µM | MCF7 > 10 µM | MDA-MB-231 > 10 µM | NCI-H23 > 10 µM | OVCAR-3 > 10 µM | OVCAR-5 > 10 µM | RXF 393 > 10 µM | SF-268 > 10 µM | SF-539 > 10 µM | SK-MEL-28 > 10 µM | SK-MEL-2 > 10 µM | SN12C > 10 µM | SR 7.19 µM

CCCCc1ccc(-n2sc3ncc([N+](=O)[O-])cc3c2=O)cc1
inactive: A549 12.9 µM | COLO 205 18.4 µM | EKVX 13.6 µM | HCC 2998 12.5 µM | HCT-116 8.57 µM | Hs-578T 4.93 µM | MCF7 16 µM | MDA-MB-231 11.4 µM | NCI-H23 11.2 µM | OVCAR-3 5.05 µM | OVCAR-5 13.4 µM | SF-268 13 µM | SF-539 15.3 µM | SK-MEL-28 14.1 µM | SK-MEL-2 1.57 µM | SN12C 17.3 µM | SR 16 µM

COc1ccc2c(C)c(Oc3c(Cl)c(Cl)c(O)c(C#N)c3C#N)oc2c1
inactive: A498 > 100 µM | A549 > 100 µM | COLO 205 > 100 µM | EKVX > 100 µM | HCC 2998 > 100 µM | HCT-116 > 100 µM | Hs-578T > 100 µM | MCF7 > 100 µM | MDA-MB-231 > 100 µM | NCI-H23 > 100 µM | OVCAR-3 > 100 µM | OVCAR-5 > 100 µM | SF-268 > 100 µM | SF-539 > 100 µM | SK-MEL-28 > 100 µM | SK-MEL-2 > 100 µM | SN12C > 100 µM | SR > 100 µM

N#Cc1nc(-c2ccco2)oc1N
inactive: A549 > 10 µM | COLO 205 > 10 µM | EKVX > 10 µM | HCC 2998 > 10 µM | HCT-116 > 10 µM | HOP-92 > 10 µM | Hs-578T > 10 µM | MCF7 > 10 µM | MDA-MB-231 > 10 µM | NCI-H23 > 10 µM | OVCAR-5 > 10 µM | RXF 393 > 10 µM | SF-268 > 10 µM | SF-539 > 10 µM | SK-MEL-28 > 10 µM | SR > 10 µM

CN(C(=O)c1ccc(Cl)cc1)C(=S)N1CCN(c2ccccc2)CC1
inactive: A549 89.1 µM | COLO 205 50.9 µM | HCC 2998 > 100 µM | HOP-92 89.5 µM | Hs-578T 19 µM | MCF7 78.9 µM | MDA-MB-231 > 100 µM | NCI-H23 > 100 µM | OVCAR-3 > 100 µM | OVCAR-5 > 100 µM | RXF 393 > 100 µM | SF-268 > 100 µM | SK-MEL-28 > 100 µM | SK-MEL-2 > 100 µM | SN12C > 100 µM | SR 35.2 µM

CN1C(=O)c2ccccc2OC12C=Cc1ccc(O)cc1O2 (centres undefined)
inactive: A498 18.4 µM | A549 30.8 µM | COLO 205 22.2 µM | EKVX 18.6 µM | HCC 2998 18.9 µM | HCT-116 25.8 µM | HOP-92 27.2 µM | Hs-578T 19.3 µM | MCF7 32.4 µM | MDA-MB-231 18.5 µM | NCI-H23 28.2 µM | OVCAR-3 17.1 µM | OVCAR-5 20.7 µM | SF-268 26.9 µM | SK-MEL-28 21.3 µM | SK-MEL-2 20.6 µM | SN12C 26.7 µM
active: SR < 0.01 µM
